From patent US11884671B2, “Purinone compounds and their use in treating cancer” (ASTRAZENECA AB, priority 2018, dated 2024)

What was measured:
[1] = target: Full length human DNAPK protein (Homo sapiens (Human), UniProt P78527); test: DNAPK enzyme potency assay (DNA-PK enz), TR-FRET; assay type: biochemical; conditions: arithmetic mean of two or more experiments, 18 μM ATP; for IC50: read-out: DNA-PK enz pIC50 (converted)
Description: The following assays were used to measure the effects of the compounds described herein: a) DNAPK enzyme potency assay; b) DNAPK cellular potency assay. During the description of the assays, generally: • i. The following abbreviations have been used; DMSO=Dimethyl Sulphoxide; DTT=Dithiothreitol; EDTA=Ethylenediaminetetraacetic Acid, TR-FRET=Time Resolved Fluorescence Resonance Energy Transfer, ATP=Adenosine triphosphate, DTT=Dithiothreitol, DNA=Deoxyribonucleic acid, HEPES=(2-hydroxyethyl)-1-piperazineethanesulfonic acid • ii. […] Assay a): DNAPK Enzyme Potency Assay (DNA-PK Enz)
The inhibitory activity of compounds against DNAPK was determined by TR-FRET measuring a fluorescent labelled peptide substrate converting to a phosphorylated product. Fluorescently tagged peptide substrate were purchased from Thermo Fisher Scientific. 12 point half-log compound concentration-response curves, with a top concentration of 100 μM were generated from 10 mM stocks of compound solubilised in DMSO using an Echo 555 (Labcyte Inc., Sunnyvale, CA). All assays were preformed in white Greiner 1536 well low volume plates (Greiner Bio-One, UK), in a total reaction volume of 3 μL and 1% (v/v) final DMSO concentration. Enzymes and substrates were added separately to the compound plates and incubated at room temperature. The kinase reaction was then quenched by the addition of 3 μL of stop buffer. Stopped assay plates were read using a BMG Pherastar. IC50 values were calculated using a Genedata Screener® software (Genedata, Inc., Basel, Switzerland).
Full length human DNAPK protein was purified from HeLa cell extract by ion exchange. Initially DNAPK protein was incubated with compound for 30 minutes at room temperature in reaction buffer (50 mM Hepes pH 7.5, 0.01% Brij-35, 10 mM MgCl2, 1 mM EGTA, 1 mM DTT, […] Calf Thymus DNA). The reaction was then initiated by the addition of ATP and fluorescently tagged peptide substrate (Fluorescein-[…], Thermo Fisher Scientific). […] The reaction was incubated for a further hour and the plates were read on a BMG Pherastar.
(§1) Data was analysed and IC50 values were calculated using Genedata Screener® software (Genedata, Inc., Basel, Switzerland).

DNAPK = DNAPK (Homo sapiens (Human), UniProt P78527); test: DNAPK cellular potency assay (DNA-PK cell), pS2056-DNAPK ELISA in irradiated A549 cells; assay type: cell-based; conditions: 8 Gy radiation, arithmetic mean of two or more experiments, read-out: DNA-PK cell pIC50 (converted)
Protocol: The DNAPK cell ELISA assay was performed in the A549 cell line. A549 cells were cultured in cell media composed of MEM-F12 (Minimum Essential Medium F12 Sigma #D6421), 10% (v/v) Foetal Calf Serum and 1% (v/v) 200 mM L-Glutamine. […] The following day the Greiner ELISA plates were washed 3× with PBS-T and blocked with 3% BSA/PBS for 2 h, before a further 3× wash with PBS-T.
The cell plates were then incubated for 1 h at 37° C. before receiving a radiation dose of 8 Gy (XRAD 320, table height 65). The cells were incubated for a further 1 h before removal of cell media. […] Cell lysates ([…]) were transferred to the DNAPK antibody-coated ELISA plates using a CyBio Felix liquid handling platform, and ELISA plates were incubated at 4° C. overnight.
The following day, ELISA plates were washed 3× with PBS-T and dispensed with in-house pS2056-DNAPK antibody (0.5 μg/mL in 3% BSA/PBS) at 20 ul/well.
The fluorescence intensity of individual wells was determined using a PerkinElmer EnVision plate reader.
as §1

| SMILES | IC50 [1] [nM] | IC50 (DNAPK) [nM] | DNA-PK enz pIC50 [1] |
| --- | --- | --- | --- |
| Cc1cc2nccc(C)c2cc1Nc1ncc2c(n1)n([C@H]1CC[C@H](O)CC1)c(=O)n2C [Example 8, 2-((4,7-dimethylquinolin-6-yl)amino)-9-((1r,4r)-4-hydroxycyclohexyl)-7-methyl-7,9-dihydro-8H-purin-8-one] | < 0.1 | 10 |  |
| Cc1cc2nnccc2cc1Nc1ncc2c(n1)n([C@@H]1CCCOC1)c(=O)n2C [Example 25, (R)-7-methyl-2-((7-methylcinnolin-6-yl)amino)-9-(tetrahydro-2H-pyran-3-yl)-7,9-dihydro-8H-purin-8-one] |  | 39.8 | 9.7 |
| Cc1cc2nnccc2cc1Nc1ncc2c(n1)n([C@@H]1CCOC1)c(=O)n2C [Example 23, (R)-7-methyl-2-((7-methylcinnolin-6-yl)amino)-9-(tetrahydrofuran-3-yl)-7,9-dihydro-8H-purin-8-one] |  | 63.1 | 9.4 |
| Cc1cc2nccnc2cc1Nc1ncc2c(n1)n([C@H]1CC[C@H](O)CC1)c(=O)n2C [Example 10, 9-((1r,4r)-4-hydroxycyclohexyl)-7-methyl-2-((7-methylquinoxalin-6-yl)amino)-7,9-dihydro-8H-purin-8-one] | < 0.1 | 10 |  |
| CC(=O)N1CCC(n2c(=O)n(C)c3cnc(Nc4cc5nc(C)cnc5cc4C)nc32)CC1 [Example 5, 9-(1-acetylpiperidin-4-yl)-2-((3,7-dimethylquinoxalin-6-yl)amino)-7-methyl-7,9-dihydro-8H-purin-8-one] |  | 100 | 9.1 |
| Cc1cc2ncccc2cc1Nc1ncc2c(n1)n([C@H]1CC[C@@](C)(N)CC1)c(=O)n2C [Example 39, 9-((1s,4s)-4-amino-4-methylcyclohexyl)-7-methyl-2-((7-methylquinolin-6-yl)amino)-7,9-dihydro-8H-purin-8-one] | 1 | 79.4 |  |
| Cc1cc2ncccc2cc1Nc1ncc2c(n1)n(C1CCN(CCO)CC1)c(=O)n2C [Example 48, 9-(1-(2-hydroxyethyl)piperidin-4-yl)-7-methyl-2-((7-methylquinolin-6-yl)amino)-7,9-dihydro-8H-purin-8-one] |  | 316 | 9.0 |
| Cc1cc2nccnc2cc1Nc1ncc2c(n1)n([C@H]1CCOC1)c(=O)n2C [Example 22, (S)-7-methyl-2-((7-methylquinoxalin-6-yl)amino)-9-(tetrahydrofuran-3-yl)-7,9-dihydro-8H-purin-8-one] |  | 25.1 | 9.8 |
| Cc1cc2ncccc2cc1Nc1ncc2c(n1)n(C1COC1)c(=O)n2C [Example 36, 7-methyl-2-((7-methylquinolin-6-yl)amino)-9-(oxetan-3-yl)-7,9-dihydro-8H-purin-8-one] |  | 31.6 | 9.7 |
| CC(=O)N1CCC(n2c(=O)n(C)c3cnc(Nc4cc5nccnc5cc4C)nc32)CC1 [Example 2, 9-(1-acetylpiperidin-4-yl)-7-methyl-2-((7-methylquinoxalin-6-yl)amino)-7,9-dihydro-8H-purin-8-one] |  | 50.1 | 9.8 |
| Cc1cc2nnccc2cc1Nc1ncc2c(n1)n([C@H]1CCCOC1)c(=O)n2C [Example 27, (S)-7-methyl-2-((7-methylcinnolin-6-yl)amino)-9-(tetrahydro-2H-pyran-3-yl)-7,9-dihydro-8H-purin-8-one] |  | 12.6 | >10 |
| Cc1cc2nccnc2cc1Nc1ncc2c(n1)n([C@H]1CC[C@@H](O)CC1)c(=O)n2C [Example 13, 9-((1s,4s)-4-hydroxycyclohexyl)-7-methyl-2-((7-methylquinoxalin-6-yl)amino)-7,9-dihydro-8H-purin-8-one] | 0.2 | 15.8 |  |
| CCN1CCC(n2c(=O)n(C)c3cnc(Nc4cc5cccnc5cc4C)nc32)CC1 [Example 50, 9-(1-ethylpiperidin-4-yl)-7-methyl-2-((7-methylquinolin-6-yl)amino)-7,9-dihydro-8H-purin-8-one] |  | 398 | 8.4 |
